This is an account of results in ChEMBL document CHEMBL4351016 (Eur J Med Chem, 2019).

For assay [1], the system named is CWR22R. Kind of assay: Antiproliferative activity against AR-positive human 22Rv1 cells harboring ARE14 construct assessed as growth inhibition after 72 hrs by resazurin dye based fluorescence assay. Type of assay: functional. The conditions noted are these: 22Rv1, 72 h.
Assay [2] has as its system LNCaP C4-2. The experiment in a line: Antiproliferative activity against AR-positive human C4-2 cells assessed as growth inhibition after 72 hrs by resazurin dye based fluorescence assay. The format is functional. The settings on record: LNCaP C4-2, 72 h. For orientation: Resazurin is reduced to fluorescent resorufin, in cell work by metabolically active cells.
The test system of assay [3] is VCaP. The experiment in a line: Antiproliferative activity against AR-positive human VCaP cells assessed as growth inhibition after 72 hrs by resazurin dye based fluorescence assay. The format is functional.
For assay [4], the system named is PC-3. The experiment in a line: Antiproliferative activity against AR-negative human PC3 cells assessed as growth inhibition after 72 hrs by resazurin dye based fluorescence assay. The conditions noted are these: PC-3, 72 h. Type of assay: functional.
The target of assay [5] is T1, Androgen receptor (Homo sapiens) (UniProt P10275).
T1 sequence (whole entry): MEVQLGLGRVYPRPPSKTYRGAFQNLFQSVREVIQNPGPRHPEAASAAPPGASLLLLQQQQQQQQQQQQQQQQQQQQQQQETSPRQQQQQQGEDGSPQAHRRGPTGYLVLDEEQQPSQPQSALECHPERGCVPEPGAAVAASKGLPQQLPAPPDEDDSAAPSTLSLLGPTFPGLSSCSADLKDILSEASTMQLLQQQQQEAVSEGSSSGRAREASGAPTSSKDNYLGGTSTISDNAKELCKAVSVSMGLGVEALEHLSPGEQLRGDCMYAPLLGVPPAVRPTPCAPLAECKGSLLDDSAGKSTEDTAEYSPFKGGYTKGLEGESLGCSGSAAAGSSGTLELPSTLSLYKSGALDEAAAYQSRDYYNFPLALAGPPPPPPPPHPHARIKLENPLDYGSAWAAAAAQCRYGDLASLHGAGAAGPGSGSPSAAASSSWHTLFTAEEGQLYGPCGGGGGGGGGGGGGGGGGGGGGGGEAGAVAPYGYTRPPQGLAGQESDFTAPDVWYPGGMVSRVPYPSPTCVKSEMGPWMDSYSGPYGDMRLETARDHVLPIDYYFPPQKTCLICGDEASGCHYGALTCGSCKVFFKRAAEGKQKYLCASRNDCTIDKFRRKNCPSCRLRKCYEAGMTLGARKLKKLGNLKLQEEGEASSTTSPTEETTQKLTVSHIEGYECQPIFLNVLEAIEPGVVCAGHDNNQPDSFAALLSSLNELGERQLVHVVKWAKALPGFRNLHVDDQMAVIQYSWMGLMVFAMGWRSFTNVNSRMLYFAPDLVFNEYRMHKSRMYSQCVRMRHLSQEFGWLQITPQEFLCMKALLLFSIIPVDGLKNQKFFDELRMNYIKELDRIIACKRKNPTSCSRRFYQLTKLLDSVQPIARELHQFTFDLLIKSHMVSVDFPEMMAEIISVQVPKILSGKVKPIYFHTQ
The experiment in a line: Inhibition of AR transcriptional activity in AR-positive human 22Rv1 cells harboring ARE14 construct assessed as downregulation of NKX3.1 protein expression at 5 uM after 24 hrs by immunoblot analysis. A general note: A western blot detects proteins with antibodies after separation by electrophoresis.

Assay [6] deals with T1, Androgen receptor (Homo sapiens). Kind of assay: Inhibition of AR transcriptional activity in AR-positive human 22Rv1 cells harboring ARE14 construct assessed as decrease in PSA protein expression at 5 uM after 24 hrs by immunoblot analysis.
Assay [7] relates to CWR22R. Kind of assay: Antiproliferative activity against AR-positive human 22Rv1 cells harboring ARE14 construct assessed as growth inhibition after 24 hrs by resazurin dye based fluorescence assay. The format is functional. The settings on record: 22Rv1, 24 h.
The test system of assay [8] is BJ. Kind of assay: Antiproliferative activity against human BJ cells assessed as growth inhibition after 24 hrs by resazurin dye based fluorescence assay. Type of assay: functional.
Assay [9] has as its system CWR22R. The experiment in a line: Effect on AR-V7 protein expression in AR-positive human 22Rv1 cells harboring ARE14 construct at 5 uM after 24 hrs by immunoblot analysis. Type of assay: functional, cell-based.

Active and inactive are the calls of the source. No cut-off for these calls is given here.

In general, GI50 refers to the concentration that inhibits growth by half. Take `CC(=O)O[C@H]1CC[C@@]2(C)C(=CC[C@@H]3[C@@H]2CC[C@]2(C)c4c(C)nc5nc6cc(C)c(C)cc6n5c4C[C@@H]32)C1`: the GI50 is 40 µM in [1]; 36.5 µM in assay [2]; > 50 µM in assay [3]; > 50 µM in assay [4]; > 50 µM in [7]; > 50 µM in [8]. Further, the “NKX3.1 protein downregulation (active/not active)” value in assay [5] is “inactive”. In addition, in assay [6], the “PSA protein decrease (active/not active)” value is “inactive”. In addition, in [9], the outcome was inactive.
With `CC(=O)O[C@H]1CC[C@@]2(C)C(=CC[C@@H]3[C@@H]2CC[C@]2(C)c4c(C)nc5nccn5c4C[C@@H]32)C1`, the concentration for 50% growth inhibition (GI50) in assay [1] is 26.3 µM; in assay [2], > 50 µM; in assay [3], > 50 µM; in assay [4] it was > 50 µM; in assay [7], > 50 µM; in assay [8] it was > 50 µM. Besides, the “NKX3.1 protein downregulation (active/not active)” value in assay [5] was “inactive”. Further, in assay [6], the “PSA protein decrease (active/not active)” value was “inactive”. Also, the outcome in [9] was inactive.
For `CC(=O)O[C@H]1CC[C@@]2(C)C(=CC[C@@H]3[C@@H]2CC[C@@]2(C)[C@H]3C[C@@H]3C(=O)[C@@]2(C)Nc2nc4cc(Cl)ccc4n23)C1`, the GI50 in assay [1], in assay [2] and in assay [4] was > 50 µM in each case.
In the case of `CC(=O)O[C@H]1CC[C@@]2(C)C(=CC[C@H]3[C@@H]4C[C@@H](Nc5nc6ccccc6[nH]5)[C@@H](C(C)=O)[C@@]4(C)CC[C@@H]32)C1`, the GI50 in [1] was 6.2 µM; in assay [2], 11.9 µM; in assay [3] it was 20.3 µM; in assay [4], 29.5 µM; in assay [7] it was > 50 µM; in assay [8] it was 48.3 µM. In addition, in assay [5], the “NKX3.1 protein downregulation (active/not active)” value was “inactive”. Further, in assay [6], the “PSA protein decrease (active/not active)” value was “inactive”. Besides, in assay [9], the outcome was inactive.
As for `Cc1nc(N2CCc3ccccc3C2)nc2c1[C@@]1(C)CC[C@H]3[C@@H](CC=C4C[C@@H](O)CC[C@@]43C)[C@@H]1C2`, the GI50 is 12.4 µM in [1]; 12.7 µM in assay [2]; 20.7 µM in [3]; 7.8 µM in [4]; > 50 µM in assay [7]; 22.5 µM in assay [8]. Further, the “NKX3.1 protein downregulation (active/not active)” value in assay [5] was “Active”. In assay [9], the result was inactive.
With `CC(=O)O[C@H]1CC[C@@]2(C)C(=CC[C@H]3[C@@H]4C[C@@H](Nc5nc6ccccc6s5)[C@H](C(C)=O)[C@@]4(C)CC[C@@H]32)C1`, the GI50 is 13.2 µM in [1]; 34.1 µM in assay [2]; > 50 µM in [3]; > 50 µM in assay [4]; > 50 µM in assay [7]; > 50 µM in [8]. The “NKX3.1 protein downregulation (active/not active)” value in assay [5] was “inactive”. The “PSA protein decrease (active/not active)” value in assay [6] is “inactive”. For the same molecule, in [9], the result was inactive.
Consider `CC(=O)O[C@H]1CC[C@@]2(C)C(=CC[C@@H]3[C@@H]2CC[C@@]2(C)[C@H]3C[C@@H]3C(=O)[C@@]2(C)Nc2nc4ccc(Cl)cc4n23)C1`, for which the GI50 in assay [1], in assay [2] and in assay [4] was > 50 µM in each case.
Regarding `COc1ccc2c(C)c3c(nc2n1)C[C@H]1[C@@H]2CC=C4C[C@@H](O)CC[C@]4(C)[C@H]2CC[C@]31C`, the 50% growth inhibitory concentration (GI50) in [1] is 4.3 µM; in assay [2], 1.1 µM; in assay [3], > 50 µM; in [4] it was > 50 µM; in [7], > 50 µM; in assay [8], > 50 µM. Moreover, the “NKX3.1 protein downregulation (active/not active)” value in [5] was “Active”. The “PSA protein decrease (active/not active)” value in assay [6] was “Active”. Besides, the outcome in assay [9] was inactive.
In the case of `CC(=O)O[C@H]1CC[C@@]2(C)C(=CC[C@@H]3[C@@H]2CC[C@]2(C)c4c(C)nc5nc6ccc(Cl)cc6n5c4C[C@@H]32)C1`, the GI50 is 29.9 µM in assay [1]; 24.4 µM in [2]; > 50 µM in assay [3]; > 50 µM in assay [4]; > 50 µM in assay [7]; 50 µM in assay [8]. Further, the “NKX3.1 protein downregulation (active/not active)” value in assay [5] is “inactive”. The “PSA protein decrease (active/not active)” value in [6] was “inactive”. For the same molecule, the result in assay [9] was inactive.
As for `CC(=O)O[C@H]1CC[C@@]2(C)C(=CC[C@@H]3[C@@H]2CC[C@]2(C)c4c(C)nc5nc6cc(Cl)ccc6n5c4C[C@@H]32)C1`, the concentration for 50% growth inhibition (GI50) in assay [1], in assay [2], in assay [3], in assay [4], in [7] and in assay [8] was > 50 µM each time. Besides, the “NKX3.1 protein downregulation (active/not active)” value in assay [5] is “inactive”. For the same molecule, the “PSA protein decrease (active/not active)” value in assay [6] is “inactive”. In addition, the result in assay [9] was inactive.
`CC(=O)O[C@H]1CC[C@@]2(C)C(=CC[C@@H]3[C@@H]2CC[C@]2(C)c4c(C)nc5c(c4C[C@@H]32)c2ccccc2n5C)C1`: the GI50 in assay [1], in assay [2], in assay [3], in assay [4], in assay [7] and in assay [8] was > 50 µM in each case. Further, the “NKX3.1 protein downregulation (active/not active)” value in assay [5] was “inactive”. The “PSA protein decrease (active/not active)” value in assay [6] was “inactive”. Besides, the result in assay [9] was inactive.
Turning to `CC(=O)O[C@H]1CC[C@@]2(C)C(=CC[C@@H]3[C@@H]2CC[C@@]2(C)[C@H]3C[C@@H]3C(=O)[C@@]2(C)Nc2nc4ccccc4n23)C1`, the GI50 in assay [1] was 5.4 µM; in assay [2], 18 µM; in [3], > 50 µM; in [4], > 50 µM; in assay [7], > 50 µM; in assay [8], > 50 µM. For the same molecule, the “NKX3.1 protein downregulation (active/not active)” value in assay [5] was “inactive”. Also, the “PSA protein decrease (active/not active)” value in [6] is “inactive”. Besides, in assay [9], the result was inactive.
Take `CC(=O)O[C@H]1CC[C@@]2(C)C(=CC[C@@H]3[C@@H]2CC[C@@]2(C)[C@H]3C[C@@H]3C(=O)[C@@]2(C)Nc2nc4cc(C)c(C)cc4n23)C1`: the concentration for 50% growth inhibition (GI50) in [1] was 7.4 µM; in [2], > 50 µM; in assay [3], > 50 µM; in assay [4], > 50 µM; in assay [7], > 50 µM; in assay [8], > 50 µM. For the same molecule, in assay [5], the “NKX3.1 protein downregulation (active/not active)” value was “inactive”. Besides, the “PSA protein decrease (active/not active)” value in assay [6] is “inactive”. Further, in [9], the result was inactive.
Consider `C[C@]12CC[C@H](O)CC1=CC[C@@H]1[C@@H]2CC[C@]2(C)/C(=N/n3cnc4ccccc43)CC[C@@H]12`, for which the GI50 is > 50 µM in assay [1]; > 50 µM in [2]; > 50 µM in assay [3]; 11.5 µM in [4]; > 50 µM in assay [7]; > 50 µM in assay [8]. Further, in assay [5], the “NKX3.1 protein downregulation (active/not active)” value was “inactive”. Besides, the “PSA protein decrease (active/not active)” value in [6] was “inactive”. In addition, the outcome in [9] was inactive.
With `CC(=O)O[C@H]1CC[C@@]2(C)C(=CC[C@@H]3[C@@H]2CC[C@]2(C)c4c(C)nc5nc6ccccc6n5c4C[C@@H]32)C1`, the GI50 is 7.2 µM in [1]; 22.5 µM in [2]; > 50 µM in assay [3]; > 50 µM in [4]; > 50 µM in assay [7]; 44.9 µM in assay [8]. For the same molecule, the “NKX3.1 protein downregulation (active/not active)” value in [5] was “inactive”. Besides, in assay [6], the “PSA protein decrease (active/not active)” value was “inactive”. Also, in [9], the result was inactive.
